Measured values from paper PMC6383948, “Evaluation of a class of isatinoids identified from a high-throughput screen of human kinase inhibitors as anti-Sleeping Sickness agents” (PLoS Neglected Tropical Diseases, 2019).
Read-outs that look alike come from different tables or passages of the source.

Columns and labels:
T. b. brucei [1] = settings: cited from earlier work; for T.b.b. pEC50: data from original HTS, ref [13]
[2] = design: method as in PMID 25340575; settings: data from original HTS; ref [13]; cited from earlier work
T. b. brucei [3] = test: T. b. brucei growth inhibition EC50 assay (resazurin, 72 h); format: cell-based, Trypanosoma brucei brucei Lister 427
Method: Mid-log phase growth T. b. brucei was diluted to a working cell density of 2,750 cells/mL and 90 μL/well dispensed into 96-well flat-bottom transparent assay plates (Nunc). Ten μL/well from intermediate plates were added. The final top concentration of compounds was 40 μM in 0.4% DMSO per well.
Assay plates were incubated for 72 h at 37°C and 5% CO2. Four hours prior to the end of the incubation, 20 μL of a 440 μM resazurin solution in prewarmed HMI-9 was added to each well and incubated for another 4 h. Fluorescence was then measured in an Infinite F200 plate reader (Tecan) at 550 nm (excitation filter) and 590 nm (emission filter). A 4-parameter equation was employed to fit the dose-response curves and determine of EC50 using the SigmaPlot 13.0 software. Assays were performed in duplicate at least twice, to achieve a minimal n = 3 per dose response.
Bloodstream Trypanosoma brucei brucei Lister 427 was cultured in Hirumi’s modified Iscove’s medium (HMI-9), supplemented with 10% heat-inactivated FBS, at 37 °C and 5% CO2 in T-25 vented flask (Corning®).
For dose-response experiments, compound plates were prepared for each analogue by serial 3-fold dilutions in 100% DMSO. Five concentration points (mammalian cytotoxicity) or ten concentration points (parasite growth inhibition), were made in 96-well transparent Nunclon plates. Pentamidine is routinely included in compound plates as internal quality control, and plates are stored sealed at -20 °C for no more than four weeks.

MRC5-SV2 cell line [4] = test: Cytotoxicity assay in MRC5 (resazurin, 48 h); format: cell-based, human; settings: MRC5 toxicity
Method: For dose-response experiments, compound plates were prepared for each analogue by serial 3-fold dilutions in 100% DMSO. Five concentration points (mammalian cytotoxicity) or ten concentration points (parasite growth inhibition), were made in 96-well transparent Nunclon plates. Pentamidine is routinely included in compound plates as internal quality control, and plates are stored sealed at -20 °C for no more than four weeks. Intermediate plates were made as described, adding 95 μL of DMEM complete media to 5 μL of compound per well setting a 5% DMSO amount. Log-phase MRC5 cells were removed from a T-75 TC flask using TrypLE® Express (Thermo®) and dispersed by gentle pipetting. Cell density was adjusted to working concentration in prewarmed DMEM medium: 25,000 cells in 90 μL of culture were plated in 96-well transparent Nunclon plates and let to settle for 24 h at 37 °C and 5% CO2. After settling incubation, 10 μL of fresh made intermediate plate were added per well: final maximal concentration for compounds was 50 μM in 0.5% DMSO per well. […] Fluorescence was read in an Infinite F200 plate reader (Tecan®) at 550 nm (excitation filter) and 590 nm (emission filter). A 4-parameter equation was used to fit the dose-response curves and determination of EC50 by SigmaPlot ® 13.0 software. Assays were performed in duplicate at least twice for positive compounds, to achieve a minimal n=3 per dose response.

[5] = Shake-flask octanol-water Log D7.4; format: physicochemical; settings: pH 7.4, octanol-water shake-flask
Method: Shake-flask octanol-water distribution coefficient at pH 7.4 (Log D7.4). The aqueous solution used is 10 mM sodium phosphate pH 7.4 buffer. The method has been validated for Log D7.4 ranging from -2 to 5.0.

[6] = Human liver microsomal CLint; format: in vitro ADME; settings: human liver microsomes
Method: In vitro intrinsic clearance determined from human liver microsomes using a standard approach. Following incubation and preparation, the samples are analyzed using LC/MS/MS.

Rat hepatocyte CLint = format: in vitro ADME; settings: rat hepatocytes
Method: In vitro intrinsic clearance determined from rat hepatocytes using a standard approach. Following incubation and preparation, the samples are analyzed using LC/MS/MS.

[7] = Human plasma protein binding (equilibrium dialysis); format: in vitro ADME
Method: PPB is determined using equilibrium dialysis (RED device) to separate free from bound compound. The amount of compound in plasma (10 µM initial concentration) and in dialysis buffer (pH 7.4 phosphate buffer) is measured by LC-MS/MS after equilibration at 37 °C in a dialysis chamber. The fraction unbound (fu) is reported.

T. cruzi = test: β-D-Galactosidase transgenic T. cruzi assay (amastigote-infected L6 cells); format: cell-based, T. cruzi Tulahuen C4 strain; settings: 96 h; for EC50: Trypanosoma cruzi, read-out: T. cruzi pEC50 (converted)
Method: The T. cruzi Tulahuen C4 strain, expressing the β-galactosidase gene (LacZ) and L6 rat skeletal muscle cells, used as host cells, were cultured in RPMI-1640 supplemented with 10% iFBS, 2 mM L-glutamine, 100 U/mL penicillin, and 100 μg/mL streptomycin at 37 °C and 5% CO2.
A Thermo Scientific Multidrop Combi dispenser (MTX Lab Systems, Vienna, VA) was used to dispense 90 μL of T. cruzi amastigote–infected L6 cell culture (4×10^3 infected L6 cells per well) into 96-well Corning assay plates (Corning Inc., Corning, NY) already containing 10 μL of the compounds to be screened and controls. The plates were incubated at 37 °C for 96 h. Then, 30 μL of 100 μM CPRG and 0.1% NP40 diluted in PBS were added to each well, and the plates were incubated for 4 h at 37 °C in the dark. Absorbance at 585 nm was measured in a Vmax kinetic microplate reader ([…]). Compound activities were normalized using the in-plate negative (benznidazole at 10 μg/mL) and positive (0.2% DMSO) growth controls.

L. donovani = test: EC50 in L. donovani (infected THP-1 macrophages, luciferase); format: cell-based, Leishmania donovani MHOM/ET/67/HU3; settings: 72 h; for EC50: Leishmania donovani, read-out: L. donovani pEC50 (converted)
Method: Leishmania donovani MHOM/ET/67/HU3 cells with the luciferase gene integrated into the parasite genome[1] were grown at 28 °C in RPMI 1640-modified medium (Invitrogen) supplemented with 20% FBS with […] of hygromycin B.
The Human myelomonocytic cell line THP-1 was grown at 37 °C and 5% CO2 in RPMI-1640 supplemented with 10% iFBS, 2 mM […], 100 U/mL penicillin and […] streptomycin. 3 x 10^4 THP-1 cells per well in 96-well plates were differentiated to macrophages with 20 ng/mL of PMA treatment for 48 h followed by 24 h of culture in fresh medium.
Macrophage-differentiated THP-1 cells were infected at a macrophage/parasite ratio of 1/10 with stationary L. donovani promastigotes for 24 h at 35 °C and 5% CO2, and extracellular parasites were removed by washing with PBS. Infected cell cultures were then incubated with different compounds concentrations at 37 °C for 72 h. Luminescence was measured using the Promega kit luciferase assay system (Promega, Madison, WI). Assays were performed in duplicate at least twice, to achieve a minimal n=3 per dose response.

[8] = system: S. mansoni adults and somules; test: S. mansoni phenotypic assay, adults and somules (severity score); format: cell-based, Schistosoma mansoni (NMRI isolate); settings: for Adult severity score (10 μM): adults; for Adult severity score (10 μM) / Somule severity score (10 μM): score 0-4; for Somule severity score (10 μM): somules
Method: Maintenance of the Schistosoma mansoni life cycle, preparation of somules (post-infective larvae) and adult worms (≥42-days-old), and co-incubation of these stages with test compounds were as described. An NMRI isolate of S. mansoni was used for all whole-organism screens.
Somules (40 units/well/96w round-bottomed plate) or adults (five paris/well/24w plate) were cultured in the presence of compounds at 10 µM and phenotypic changes observed as a function of time using an Zeiss Axiovert A1 inverted microscope (Table S4). A constrained nomenclature was used to describe the effects of compounds on parasites (changes in shape, motility and density). To generate a partially quantitative output for comparing drug effects, each descriptor was awarded a score of 1 and these were summed to a maximum score of 4 [7-10]: evidence of degeneracy or death was awarded the maximum score of 4. For adults specifically, damage to the tegument (outer surface) was also awarded a score of 4 based on the indication that damage to the patrasite’s surface is lethal in vivo [11]. Assays were performed twice and representative data are shown.

MRC5-SV2 cell line [9] = settings: printed in Fig 4; ref [16]; cited from earlier work
[10] = Aqueous pH 7.4 solubility; format: physicochemical; settings: aqueous buffer, thermodynamic from solid; pH 7.4 phosphate buffer, 25 °C, 20-24 h; read-out: Aq. Solubility
Method: Compounds are dried down from 10 mM DMSO solutions using centrifugal evaporation technique. Phosphate buffer (0.1 M pH 7.4) added and StirStix inserted in the glass vials, shaking is then performed at a constant temperature of 25 °C for 20-24 h. This step is followed by double centrifugation with a tip wash in between, to ensure that no residues of the dried compound are interfering. The solutions are diluted before analysis and quantification using LC/MS/MS is performed.

Row | Compound | T.b.b. pEC50 (T. b. brucei [1]) | Kinetic aq. solubility [2] | MRC5 pTC50 (MRC5-SV2 cell line [4]) | EC50 (T. cruzi) | EC50 (L. donovani) | Adult severity score (10 μM) ([8]; 3h) | Adult severity score (10 μM) ([8]; 6h) | Adult severity score (10 μM) ([8]; 24h) | Adult severity score (10 μM) ([8]; 48h) | Somule severity score (10 μM) ([8]; 24h) | Somule severity score (10 μM) ([8]; 48h) | also measured
1 | NS(=O)(=O)c1ccc(N/N=C2\C(=O)Nc3ccc(-c4cnco4)cc32)cc1 [NEU-1185] | 6.4 | 18 µM | – | – | – | – | – | – | – | – | – | –
2 | (Z)-3-(2-(4-((Piperidin-1-ylmethyl)sulfonyl)phenyl)hydrazineylidene)indolin-2-one [NEU-4893] | – | – | <4.3 | – | – | – | – | – | – | – | – | activity against T. brucei (T. b. brucei [3]): inactive; T.b.b. pEC50 (T. b. brucei [3]; 72 h, resazurin, error within ±0.20 (Table 2) or ±0.08 (Table 3) log units): 5.0; LogD (7.4) [5]: 2.2; HLM Clint [6]: <3 µL/min/mg; Rat Hepatocyte Clint (Rat hepatocyte CLint): 148 µL/min/10^6 cells; PPB ([7]; 10 µM): 90%; T. cruzi pEC50 (T. cruzi): <4.70; L. donovani pEC50 (L. donovani): <5.30
3 | CC(C)=Cc1cccc2c1C(=NNc1ccc(S(N)(=O)=O)cc1)C(=O)N2 [NEU-1183] | 7.6 | <5 µM | – | 0.724 µM | > 5.01 µM | 2 | 2 | 2 | 2 | 1 | 4 | activity against S. mansoni adults and/or somules ([8]; 10 μM): moderate and variable activity
4 | CCS(=O)(=O)Nc1ccc2c(c1)/C(=C(/Nc1ccc(CN3CCCCC3)cc1)c1ccccc1)C(=O)N2 [Hesperadin, reference compound] | – | – | – | – | – | – | – | – | – | – | – | T.b.brucei pEC50 (T. b. brucei [1]; printed in Fig 4, ref [16]): 7.22; MRC5 pTC50 (MRC5-SV2 cell line [9]): 6.69
5 | O=C1Nc2ccccc2C1=NNc1ccccc1 [NEU-2116, (Z)-3-(2-Phenylhydrazono)indolin-2-one] | – | – | <4.3 | > 10 µM | > 10 µM | 0 | 0 | 0 | 1 | 0 | 0 | EC50 (T. b. brucei [3]; Trypanosoma brucei, 72 h, read-out: T.b.b. pEC50 (converted)): 12.6 µM; solubility [10]: < 2 µM; logD [5]: > 3.8; microsomal CLint ([6]; read-out: HLM Clint): 184 µL/min/mg; fraction unbound at 10 µM ([7]; pH 7.4, read-out: PPB (converted)): < 0.02
6 | NS(=O)(=O)c1ccc(N/N=C2\C(=O)Nc3ccc4ncccc4c32)cc1 [NEU-1184] | 7.1 | 7.7 µM | – | – | – | – | – | – | – | – | – | –
